{"source": "paper PMC11542593", "about": "“Vascular endothelial growth factor receptor 2 as a potential host target for the inhibition of enterovirus replication” (Journal of Virology, 2024)", "key": {"CVB1": {"tested_on": "CVB1", "assay": "Antiviral activity against CVB1 in BGMK cells (RT-qPCR, TCID50)", "format": "cell-based, coxsackievirus B1", "settings": "10 µM, 0.1 MOI, 24 h", "method": "(§1) Detection of cellular mRNA expression and viral load was performed as described previously ([24]). In brief, the infected or mock-infected cells were lysed and applied to total RNA extraction by using the MiniBEST Universal RNA Extraction Kit (TaKaRa, Code No.9767). Viral RNA in the supernatant was extracted with the MiniBEST Viral RNA Extraction Kit (TaKaRa, Code No.9766). Reverse transcription was performed using the PrimeScript RT reagent Kit (TaKaRa, Code No.PR037A) with an oligo (dT) primer. The resultant cDNAs were used for qPCR assay with the Light Cycler 480 SYBR Green I Master Mix (Roche) to measure the mRNA expression level of cellular genes or viral load in supernatants. The relative viral gene copy was determined by RT-qPCR, using GAPDH as an internal reference.\n(§2) The viral titer in the indicated samples was determined by TCID50 assay as described previously ([25]). Briefly, serially diluted samples from 10^−1 to 10^−8 in DMEM were inoculated to RD cells, BGMK cells, or MRC-5 in 96‐well plates. The cells were then incubated for 2 to 3 days at 37°C. TCID50 was calculated by counting the wells with cytopathic effect in infected cells using the Reed–Muench method.\n(§3) The viral gene copy in the cell lysate is normalized with the transcript of GAPDH and presented. Viral titers were also detected by TCID50 assay. […] All experiments were independently repeated thrice."}, "EV-A71 [1]": {"tested_on": "EV-A71", "assay": "EV-A71 replication in multiple cell types (293T, Vero-E6, Huh7, HepG2, HT-29, Caco2)", "format": "cell-based, Human enterovirus A71", "settings": "Vero-E6, Huh7, HepG2 (MOI 1), HT-29, Caco2 (MOI 2), 24 hpi"}, "HRV-A": {"tested_on": "HRV-A", "assay": "Antiviral activity against HRV-A in MRC-5 cells (RT-qPCR, TCID50)", "format": "cell-based, human rhinovirus A", "settings": "10 µM, 0.1 MOI, 24 h", "method": "as §1, §2, §3"}, "EV-A71 [2]": {"tested_on": "EV-A71", "assay": "Viral load reduction assay in RD cells (RT-qPCR, TCID50, VP1 Western blot)", "format": "cell-based, Human enterovirus A71", "settings": "MOI 0.1, 24 h", "method": "as §1, §2\nWestern blot analysis was performed as described previously ([26]). In brief, the indicated cell samples were lysed in RIPA buffer supplemented with protease inhibitors (Thermo Fisher Scientific, 78430). The cell lysates were then separated in 10% SDS-PAGE and transferred to a 0.45-µm nitrocellulose membrane. After blocking, the membrane was incubated with an against VP1 antibody (GeneTex, GTX132339), VEGFR1 antibody (Abcam, ab32152), VEGFR2 antibody (Abcam, ab134191), phosphorylated VEGFR2 antibody (Tyr951) (CST 4991), VEGFR3 antibody (Beyotime, AF6918), Akt antibody (CST 4685), phosphorylated Akt antibody (CST 4060), or GAPDH antibody (GeneTex, GTX627408) diluted 1:5,000 in primary antibody dilution buffer overnight at 4°C, followed by corresponding secondary staining. The blots were visualized by western horseradish peroxidase substrate and imaged with Gel Doc XR+.\nThe results represent cell viability in the EV-A71-infected RD cells or 2D human intestinal organoids treated with DMSO (Negative control), Pirodavir (Positive control), or indicated VEGFR inhibitor (10 µM) relative to those in mock-infected RD cells or 2D human intestinal organoids. […] Significant inhibition of EV-A71 infection was found for both cell lysate (left) and supernatant (right) using RT-qPCR analysis. The results represent the viral load in the cells treated with indicated inhibitors relative to that in DMSO-treated cells. (C) Viral titer was also determined for inhibitor-treated samples in TCID50 assays. […] (D) Representative images of immunofluorescence assay for selected inhibitors using Rabbit anti‐VP1 antibody (green). Nuclei are counterstained with DAPI (blue). Scale bar, 50 µm.\nNuclei are counterstained with DAPI (blue). Scale bar, 50 µm.\nFig. S2. […] The results represent the viral load in the cells treated with indicated concentration of VEGFR inhibitors relative to that in DMSO-treated cells. Viral titer was also determined for samples treated with indicated concentrations of VEGFR inhibitors in TCID50 assays.\nFig. S7. Viral reduction in RD cells with Src inhibitor treatment. […] Significant inhibition of EV-A71 infection was found for both cell lysate (left) and supernatant (middle) using RT-qPCR analysis. The results represent the viral load in the cells treated with Dasatinib relative to that in DMSO-treated cells. Viral titer was also determined for inhibitor-treated samples in TCID50 assays (right). […] (C) VP1 protein levels were measured for samples treated with DMSO or Dasatinib using western blotting.\nFig. S8. Viral reduction in RD cells with Akt inhibitor treatment. […] Significant inhibition of EV-A71 infection was found for both cell lysate (left) and supernatant (middle) using RT-qPCR analysis. […]"}, "VEGFR1": {"tested_on": "VEGFR1", "design": "method as in PMID 17620431", "settings": "cited from earlier work"}, "EV-A71 [3]": {"tested_on": "EV-A71", "assay": "Flow cytometry of VP1-positive EV-A71-infected RD cells", "format": "cell-based, Human enterovirus A71", "settings": "10 μM, MOI 2, 6 and 9 hpi", "method": "Flow cytometry analysis was performed according to the standard protocol as described previously ([28]). In brief, the infected or mock-infected RD cells were dissociated with 10 mM EDTA and then fixed with 4% paraformaldehyde for 30 min. After permeabilization, the cells were incubated with rabbit anti‐VP1 antibody (GeneTex, GTX132339), followed by labeling with FITC-conjugated goat anti-rabbit IgG (Beyotime, P0176). Flow cytometry analysis was performed using a BD Fortessa flow cytometer (BD Biosciences), and the data were analyzed using FlowJo v.10 (Tree Star, USA).\nFig. S4. […] Then the infected- and mock-infected RD cells were fixed, labeled, and applied to flow cytometry to evaluate the percentage of VP1-positive cells at 0, 3, 6 and 9 hpi. […] Mean and SD of three independent experiments are presented (B and C). *p < 0.05; **p < 0.01."}, "VEGFR2": {"tested_on": "VEGFR2", "design": "method as in PMID 17620431", "settings": "cited from earlier work"}, "EV-A71 [4]": {"tested_on": "EV-A71", "assay": "Time-of-drug addition assay in RD cells", "format": "cell-based, Human enterovirus A71", "settings": "MOI 1, read at 12 hpi", "method": "RD cells were seeded into 24-well plates or eight-well chamber slides (Millicell) 1 day before infection with EV-A71 at an MOI of 1. After adsorption for 2 h, the cells were washed with PBS once to remove the unbound virus and maintained in DMEM supplemented with 2% FBS. […] At 12 hpi, the virus from the culture supernatant were collected, and the relative viral gene copy was detected by RT-qPCR. Meanwhile, the virus titer was assessed using TCID50 assay as described before. To analyze VP1 expression, the cells in the eight-well chamber slides were fixed and then monitored using immunofluorescence staining.\n(A) Graphical scheme illustrating the experimental design. (B) RT-qPCR measured the amount of viral RNA released into culture supernatant. (C) Viral titer was determined in TCID50 assays. […] Nuclei are counterstained with DAPI (blue). Scale bar, 50 µm."}}, "note": "pIC50: −log10 of the molar value."}
{"molecule": "Cc1ccc(Nc2nccc(N(C)c3ccc4c(C)n(C)nc4c3)n2)cc1S(N)(=O)=O", "note": "[Pazopanib]", "values": [{"measurement": "decrease in viral load and viral titer", "setting": "CVB1", "value": "over 2 logs"}, {"measurement": "EV-A71 replication in cell culture supernatants of multiple cell types", "setting": "EV-A71 [1]", "value": "significantly reduced"}, {"measurement": "HRV-A replication (viral loads in cell lysate and supernatant)", "setting": "HRV-A", "value": "slight but significant inhibition"}, {"measurement": "EV-A71 structural protein VP1 expression, dose dependence (Western blot)", "setting": "EV-A71 [2]; indicated concentrations", "value": "dose-dependent inhibition"}, {"measurement": "EV-A71 viral load and viral titer, dose dependence", "setting": "EV-A71 [2]; indicated noncytotoxic concentrations", "value": "markedly reduced"}, {"measurement": "pIC50", "setting": "VEGFR1", "value": 8.00}, {"measurement": "percentage of EV-A71-infected RD cells", "setting": "EV-A71 [3]", "value": "markedly decreased"}, {"measurement": "pIC50", "setting": "VEGFR2", "value": "[…]"}, {"measurement": "inhibitory effect, late treatment", "setting": "EV-A71 [4]; 10 µM added at 6 to 10 hpi", "value": "no significant inhibitory effect"}, {"measurement": "viral load and viral titer of progeny virions in culture medium, early treatment", "setting": "EV-A71 [4]; 10 µM added at −2 h, 0 h, 2 h, 4 h", "value": "significantly reduced"}]}
